Test results as given in paper PMC4154469, “Extracellular gentamicin reduces the activity of connexin hemichannels and interferes with purinergic Ca^2+ signaling in HeLa cells” (Frontiers in Cellular Neuroscience, 2014).

Columns and labels:
[1] = molecular target: T1, connexin45 (mCx45) hemichannel (Mus musculus, UniProt P28229); assay: ethidium uptake in HeLa-mCx45 cells, […] streptomycin; assay type: cell-based
T1 construct: gene Gjc1; mouse Cx45 (NM_001159383.1) stably expressed in HeLa cells
T1 sequence (P28229 whole entry): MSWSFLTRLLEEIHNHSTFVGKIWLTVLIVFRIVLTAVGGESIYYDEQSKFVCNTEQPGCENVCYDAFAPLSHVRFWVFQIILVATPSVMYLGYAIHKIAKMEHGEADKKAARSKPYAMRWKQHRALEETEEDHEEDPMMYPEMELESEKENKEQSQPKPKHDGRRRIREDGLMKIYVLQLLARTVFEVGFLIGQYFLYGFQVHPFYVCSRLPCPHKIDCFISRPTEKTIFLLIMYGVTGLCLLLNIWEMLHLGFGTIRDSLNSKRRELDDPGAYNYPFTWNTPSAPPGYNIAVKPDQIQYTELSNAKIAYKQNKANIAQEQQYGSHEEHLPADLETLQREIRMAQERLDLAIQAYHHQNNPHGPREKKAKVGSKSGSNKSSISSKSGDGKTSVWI

[2] = molecular target: T2, connexin43 (mCx43) hemichannel (Mus musculus, UniProt P23242); assay: ethidium uptake in HeLa-mCx43 cells, […] streptomycin; assay type: cell-based
T2 construct: gene Gja1; mouse Cx43 (NM_010288.3) stably expressed in HeLa cells
T2 sequence (P23242 2-382): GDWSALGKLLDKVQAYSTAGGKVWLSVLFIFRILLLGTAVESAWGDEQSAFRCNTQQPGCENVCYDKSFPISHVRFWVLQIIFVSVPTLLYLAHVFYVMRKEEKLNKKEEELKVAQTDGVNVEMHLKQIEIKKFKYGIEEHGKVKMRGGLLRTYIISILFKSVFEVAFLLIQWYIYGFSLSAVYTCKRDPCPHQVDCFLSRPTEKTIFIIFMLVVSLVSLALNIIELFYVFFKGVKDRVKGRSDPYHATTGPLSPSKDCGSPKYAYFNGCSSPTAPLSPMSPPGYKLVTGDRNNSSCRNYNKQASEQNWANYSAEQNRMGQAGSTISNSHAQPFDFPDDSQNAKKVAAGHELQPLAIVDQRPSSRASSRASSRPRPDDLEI

[H]/N=C(/N)N[C@H]1[C@H](O)[C@@H](O)[C@H](O[C@@H]2O[C@@H](C)[C@](O)(C=O)[C@H]2O[C@@H]2O[C@@H](CO)[C@H](O)[C@@H](O)[C@@H]2NC)[C@@H](N/C(N)=N\[H])[C@@H]1O [streptomycin]
ethidium uptake in HeLa-mCx45 cells, 200 μM streptomycin [1]: In HeLa-mCx45 cells, Etd uptake was reduced to values below the ones recorded under control condition
ethidium uptake in HeLa-mCx43 cells, 200 μM streptomycin [2]: also inhibited the Etd uptake of HeLa-rCx26 (Figures 2E,F), -mCx43 and -mCx45 cells in DCFS
